Measurements as given in patent US20260209215A1, “GLYCINE DERIVATIVES WITH P2X4 RECEPTOR-BLOCKING ACTIVITY AS DIAGNOSTICS AND FOR THE TREATMENT OF PAIN, INFLAMMATION, CANCER, AND OTHER P2X4 RECEPTOR-RELATED DISEASES” (RHEINISCHE-FRIEDRICH-WILHELMS-UNIVERSITÄT BONN, priority 2022, published 2026).

Target: T1, P2X4 receptor (Homo sapiens, UniProt Q99571)
T1 construct: expressed in transfected cells; host or cells: 1321N1 astrocytoma cells, retroviral vector pQCXIN, G418 selection, monoclones
T1 sequence (Q99571 1-388): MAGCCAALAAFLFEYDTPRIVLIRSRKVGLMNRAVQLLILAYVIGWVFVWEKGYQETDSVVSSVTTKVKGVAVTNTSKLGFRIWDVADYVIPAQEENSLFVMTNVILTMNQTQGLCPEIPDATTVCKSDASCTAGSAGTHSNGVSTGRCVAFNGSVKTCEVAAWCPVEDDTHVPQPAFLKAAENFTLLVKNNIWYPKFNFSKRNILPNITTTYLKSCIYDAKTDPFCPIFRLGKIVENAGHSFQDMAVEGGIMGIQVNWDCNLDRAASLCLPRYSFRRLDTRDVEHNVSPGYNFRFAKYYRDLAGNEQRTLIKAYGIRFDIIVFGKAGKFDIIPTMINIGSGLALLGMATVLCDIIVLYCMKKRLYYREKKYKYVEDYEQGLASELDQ
Assay: Measurement of Ca2+ influx in transfected 1321N1 astrocytoma cells (P2X4 inhibitory potency)
Format: cell-based
Details: agonist-mediated Ca2+ influx, FLUO-4, 1321N1 astrocytoma cells; antagonists added 30 min before agonist
How it was run: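 Stable 1321N1 astrocytoma cells expressing human P2X4, loaded with FLUO-4 AM (2.4 μM) in HBSS/HEPES pH 7.3 for 1 h at 23 °C. Antagonists added 30 min before agonist; fluorescence at 520 nm recorded for 30 s. Compounds tested at 7–8 concentrations spanning three log units.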

SMILES | IC50
Cc1nsc(-c2ccc(C)c(NCC(=O)N3CCc4c3cccc4C(C)(C)O)c2)n1 [Example 22, 1-(4-(2-hydroxypropan-2-yl)indolin-1-yl)-2-((2-methyl-5-(3-methyl-1,2,4-thiadiazol-5-yl)phenyl)amino)ethan-1-one] | 0.1 to 19 nM
Cc1nsc(-c2ccc(C)c(NCC(=O)N3CCc4c3cccc4[C@](C)(O)CO)c2)n1 [Example 65, 1-(4-(1,2-dihydroxypropan-2-yl)indolin-1-yl)-2-((2-methyl-5-(3-methyl-1,2,4-thiadiazol-5-yl)phenyl)amino)ethan-1-one] | 0.1 to 19 nM
Cc1nsc(-c2ccc(C)c(NCC(=O)N3CCc4c(CS(C)(=N)=O)cccc43)c2)n1 (centres unmarked) [Example 69, imino(methyl)((1-((2-methyl-5-(3-methyl-1,2,4-thiadiazol-5-yl)phenyl)glycyl)indolin-4-yl)methyl)sulfanone] | > 100 nM
Cc1ccc(-c2ccc(C3CC3)cn2)cc1NCC(=O)N1CCc2c(OCC(C)(C)O)cccc21 [Example 114, 2-((5-(5-cyclopropyl-pyridin-2-yl)-2-methyl-phenyl)amino)-1-(4-(2-hydroxy-2-methyl-propoxy)indolin-1-yl) ethan-1-one] | 40 to 69 nM
C=Cc1nsc(-c2ccc(C)c(NCC(=O)N3CCc4c(OCCOCCO)cccc43)c2)n1 [Example 18, 1-(4-(2-(2-hydroxyethoxy)ethoxy)indolin-1-yl)-2-((2-methyl-5-(3-vinyl-1,2,4-thiadiazol-5-yl)phenyl)amino) ethan-1-one] | 0.1 to 19 nM
Cc1nsc(-c2ccc(C)c(NCC(=O)c3c[nH]c4ncccc34)c2)n1 [Example 100, 2-((2-methyl-5-(3-methyl-1,2,4-thiadiazol-5-yl)phenyl)amino)-1-(1H-pyrrolo [2,3-b]pyridin-3-yl) ethan-1-one] | 20 to 39 nM
CNC(=O)C1CN(C(=O)CNc2cc(-c3nc(C)ns3)ccc2C)c2ccccc21 (centres unmarked) [Example 59, N-methyl-1-((2-methyl-5-(3-methyl-1,2,4-thiadiazol-5-yl)phenyl)glycyl) indoline-3-carboxamide] | > 100 nM
C#Cc1nsc(-c2ccc(C)c(NCC(=O)N3CCc4c(OC)cccc43)c2)n1 [Example 15, 2-((5-(3-ethynyl-1,2,4-thiadiazol-5-yl)-2-methylphenyl)amino)-1-(4-methoxyindolin-1-yl)ethan-1-one] | 0.1 to 19 nM
CCc1nsc(-c2ccc(C)c(NCC(=O)N3CCc4c(N5CC(C)OC(C)C5)cccc43)c2)n1 (centres unmarked) [Example 27, 1-(4-(2,6-dimethylmorpholino)indolin-1-yl)-2-((5-(3-ethyl-1,2,4-thiadiazol-5-yl)-2-methylphenyl)amino) ethan-1-one] | 0.1 to 19 nM
Cc1nsc(-c2ccc(C)c(NCC(=O)N3CCc4c(NS(C)(=O)=O)cccc43)c2)n1 [Example 46, N-(1-((2-methyl-5-(3-methyl-1,2,4-thiadiazol-5-yl)phenyl)glycyl)indolin-4-yl)methanesulfonamide] | 20 to 39 nM
CCc1noc(-c2ccc(OC)c(NCC(=O)N3CCc4nc(OC)ccc43)c2)n1 [Example 11, 2-((5-(3-ethyl-1,2,4-oxadiazol-5-yl)-2-methoxyphenyl)amino)-1-(5-methoxy-2,3-dihydro-1H-pyrrolo[3,2-b]pyridin-1-yl)ethan-1-one] | 20 to 39 nM
COc1ccc(-c2ccc(C)cn2)cc1NCC(=O)N1CCc2cc(F)c(F)cc21 [Example 118, 1-(5,6-difluoroindolin-1-yl)-2-((2-methoxy-5-(5-methylpyridin-2-yl)phenyl)amino)ethan-1-one] | 40 to 69 nM
Cc1nsc(-c2ccc(C)c(NCC(=O)N3CCc4c(C(N)C(F)(F)F)cccc43)c2)n1 (centres unmarked) [Example 88, 1-(4-(1-amino-2,2,2-trifluoroethyl)indolin-1-yl)-2-((2-methyl-5-(3-methyl-1,2,4-thiadiazol-5-yl)phenyl)-amino)ethan-1-one] | 40 to 69 nM
Cc1nsc(-c2ccc(C)c(NCC(=O)N3CCc4c3cccc4N3CC(=O)NC3=O)c2)n1 [Example 54, 1-(1-((2-methyl-5-(3-methyl-1,2,4-thiadiazol-5-yl)phenyl)glycyl)indolin-4-yl) imidazolidine-2,4-dione] | 70 to 99 nM
